In one experiment the target is PARP1 (Homo sapiens, UniProt P09874). Nature of the experiment: PARP1 activity assay (Figure S6); also photoaffinity pull-down from HeLa lysate with MS and Western blot. It counts as biochemical. On the technique in general: Immunoblotting shows a protein as a band on a membrane.
The next experiment concerns the target CDK8 (Homo sapiens, UniProt P49336). Nature of the experiment: photoaffinity labeling, streptavidin pull-down and MS in HeLa lysate, enriched over probe […] in two biological replicates. It counts as cell-based.
A further experiment addresses PARP4 (Homo sapiens, UniProt Q9UKK3). Nature of the experiment: competition of probe […] photoaffinity pull-down in HeLa lysate by unlabeled olaparib ([…]), MS. It is filed as cell-based.

As a reminder, the IC50 is the concentration that inhibits the measured activity by half. Low values mean greater potency, high ones weaker potency.

Sequence of PARP4 (Q9UKK3 whole entry): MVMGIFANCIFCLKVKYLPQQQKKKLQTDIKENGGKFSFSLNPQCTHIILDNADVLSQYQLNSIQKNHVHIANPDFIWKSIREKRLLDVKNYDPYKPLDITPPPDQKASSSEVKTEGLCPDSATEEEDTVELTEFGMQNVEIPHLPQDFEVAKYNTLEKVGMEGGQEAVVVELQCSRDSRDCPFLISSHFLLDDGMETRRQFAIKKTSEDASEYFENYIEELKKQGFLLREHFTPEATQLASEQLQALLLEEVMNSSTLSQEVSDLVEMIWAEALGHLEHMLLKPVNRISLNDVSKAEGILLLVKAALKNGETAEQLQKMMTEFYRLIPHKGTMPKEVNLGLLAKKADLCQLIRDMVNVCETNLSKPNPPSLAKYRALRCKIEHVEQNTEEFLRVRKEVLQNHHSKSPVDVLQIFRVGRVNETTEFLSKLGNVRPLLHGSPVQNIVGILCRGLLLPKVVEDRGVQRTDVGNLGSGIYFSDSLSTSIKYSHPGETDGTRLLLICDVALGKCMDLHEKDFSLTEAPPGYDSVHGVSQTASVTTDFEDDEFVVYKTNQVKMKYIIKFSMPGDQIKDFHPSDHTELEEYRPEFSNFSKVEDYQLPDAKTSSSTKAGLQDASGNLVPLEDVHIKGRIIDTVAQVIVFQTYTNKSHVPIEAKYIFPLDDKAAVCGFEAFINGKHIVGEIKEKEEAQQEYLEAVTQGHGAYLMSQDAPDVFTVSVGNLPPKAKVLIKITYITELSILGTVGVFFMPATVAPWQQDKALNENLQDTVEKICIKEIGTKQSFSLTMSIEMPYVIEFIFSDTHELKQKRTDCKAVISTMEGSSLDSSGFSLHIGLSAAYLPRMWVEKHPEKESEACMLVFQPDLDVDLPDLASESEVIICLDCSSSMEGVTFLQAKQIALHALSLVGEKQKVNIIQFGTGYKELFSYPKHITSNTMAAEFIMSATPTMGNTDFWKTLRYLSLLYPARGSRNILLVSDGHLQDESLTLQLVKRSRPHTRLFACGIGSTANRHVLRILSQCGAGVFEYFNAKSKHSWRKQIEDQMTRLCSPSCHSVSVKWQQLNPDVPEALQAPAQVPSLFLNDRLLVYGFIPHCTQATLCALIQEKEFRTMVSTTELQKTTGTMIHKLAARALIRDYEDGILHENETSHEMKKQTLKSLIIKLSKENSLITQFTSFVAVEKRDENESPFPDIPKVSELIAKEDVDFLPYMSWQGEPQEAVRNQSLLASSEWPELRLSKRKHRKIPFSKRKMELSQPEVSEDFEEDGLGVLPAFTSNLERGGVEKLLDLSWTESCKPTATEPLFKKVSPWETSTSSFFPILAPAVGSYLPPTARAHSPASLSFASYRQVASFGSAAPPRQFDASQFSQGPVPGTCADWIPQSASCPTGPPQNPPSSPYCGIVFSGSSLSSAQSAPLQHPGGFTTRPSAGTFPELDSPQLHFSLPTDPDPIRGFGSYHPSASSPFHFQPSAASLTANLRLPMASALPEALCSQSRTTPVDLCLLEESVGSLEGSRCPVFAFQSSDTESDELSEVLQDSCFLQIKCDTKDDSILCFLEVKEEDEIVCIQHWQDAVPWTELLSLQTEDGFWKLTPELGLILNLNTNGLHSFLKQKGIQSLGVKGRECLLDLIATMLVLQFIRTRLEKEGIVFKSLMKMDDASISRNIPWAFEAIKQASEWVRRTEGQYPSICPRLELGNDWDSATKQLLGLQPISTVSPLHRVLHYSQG
Sequence of PARP1 (P09874 2-1014): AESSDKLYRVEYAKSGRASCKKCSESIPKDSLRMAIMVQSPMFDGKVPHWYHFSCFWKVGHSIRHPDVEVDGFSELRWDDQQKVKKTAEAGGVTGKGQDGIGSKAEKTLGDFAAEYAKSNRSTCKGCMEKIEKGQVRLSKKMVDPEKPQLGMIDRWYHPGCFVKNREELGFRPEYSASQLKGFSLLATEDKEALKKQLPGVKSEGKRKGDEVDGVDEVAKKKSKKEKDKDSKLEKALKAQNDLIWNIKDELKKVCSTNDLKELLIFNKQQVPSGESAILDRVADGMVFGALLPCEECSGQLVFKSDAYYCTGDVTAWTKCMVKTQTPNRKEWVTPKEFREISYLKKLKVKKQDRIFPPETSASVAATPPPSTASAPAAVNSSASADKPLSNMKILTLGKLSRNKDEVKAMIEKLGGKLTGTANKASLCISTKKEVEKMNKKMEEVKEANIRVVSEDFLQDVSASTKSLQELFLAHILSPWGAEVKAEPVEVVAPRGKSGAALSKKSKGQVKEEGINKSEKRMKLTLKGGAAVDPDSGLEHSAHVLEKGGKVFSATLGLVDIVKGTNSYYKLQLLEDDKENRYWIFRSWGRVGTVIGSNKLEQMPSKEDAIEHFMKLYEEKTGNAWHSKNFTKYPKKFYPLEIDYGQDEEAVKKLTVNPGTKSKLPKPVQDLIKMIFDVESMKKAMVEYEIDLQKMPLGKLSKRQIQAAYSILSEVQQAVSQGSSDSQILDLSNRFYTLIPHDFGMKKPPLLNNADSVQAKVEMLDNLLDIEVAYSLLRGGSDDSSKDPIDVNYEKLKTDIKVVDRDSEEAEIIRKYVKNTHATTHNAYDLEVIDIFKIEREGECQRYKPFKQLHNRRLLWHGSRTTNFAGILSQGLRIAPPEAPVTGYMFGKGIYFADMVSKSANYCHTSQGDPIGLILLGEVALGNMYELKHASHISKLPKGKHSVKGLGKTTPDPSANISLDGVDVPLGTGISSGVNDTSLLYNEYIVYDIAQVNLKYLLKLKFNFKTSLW
Sequence of CDK8 (P49336 whole entry): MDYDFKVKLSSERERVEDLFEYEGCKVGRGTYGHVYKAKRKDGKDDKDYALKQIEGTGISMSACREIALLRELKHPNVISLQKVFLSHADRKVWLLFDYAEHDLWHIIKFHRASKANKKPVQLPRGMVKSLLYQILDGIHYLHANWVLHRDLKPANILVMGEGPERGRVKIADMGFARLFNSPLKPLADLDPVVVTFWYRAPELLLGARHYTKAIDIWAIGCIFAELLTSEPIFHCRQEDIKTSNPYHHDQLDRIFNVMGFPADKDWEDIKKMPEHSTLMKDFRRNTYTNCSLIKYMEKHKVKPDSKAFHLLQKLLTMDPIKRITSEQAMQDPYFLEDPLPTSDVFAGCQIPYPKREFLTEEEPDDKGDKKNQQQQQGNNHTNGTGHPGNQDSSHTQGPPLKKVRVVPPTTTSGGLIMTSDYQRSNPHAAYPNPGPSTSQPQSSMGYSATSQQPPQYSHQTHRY

On to `O=C(CCCC[C@@H]1SC[C@@H]2NC(=O)N[C@@H]21)NCCOCCOCCOCCn1cc(CCCCC2(CCC(=O)N3CCN(C(=O)c4cc(Cc5n[nH]c(=O)c6ccccc56)ccc4F)CC3)N=N2)nn1` [compound 4, probe 4], for which the IC50 on PARP1 is 3.8 µM. Also, the “photoaffinity labeling, streptavidin pull-down and MS in HeLa lysate, enriched o” value on CDK8 was “CDK8 and its paralogue CDK19, both transcriptional regulators, were identified in our screening as direct olaparib interactors”.

For the molecule `O=C(c1cc(Cc2n[nH]c(=O)c3ccccc23)ccc1F)N1CCN(C(=O)C2CC2)CC1` [olaparib], the “competition of probe 4 photoaffinity pull-down in HeLa lysate by unlabeled olapa” value at PARP4 is on record as “This concentration‐dependent competition demonstrates the specificity of these interactions for the olaparib pharmacophore”.

For the origin of these results see article PMC11907390, “Proteome‐Wide Profiling of Olaparib Interactors Using a Biotinylated Photoaffinity Probe” (Chembiochem, 2025).
